US7709223B2, “Method for detecting bacteria with chromogenic substrates for β-D-ribofuranosidase” (priority 2001, dated 2010)
Where a name gives a salt, the structure may show the parent alone.

Columns and labels:
[1] = system: β-D-ribofuranosidase negative strains; assay: Further substrates on agar plates, colony appearance; format: cell-based
Protocol: (§1) The chromogenic β-D-ribofuranoside substrate was added to Columbia agar at a substrate concentration of 300 mg/l. Ferric ammonium citrate was included at 500 mg/l. All ingredients were autoclaved at 116° C. for 20 minutes to ensure sterilisation. Agar plates were then prepared in 90 mm petri dishes. The substrate caused a yellow colouration of the agar.
(§2) For each strain tested, a bacterial suspension was prepared in sterile deionised water at an inoculum of approximately 1.5×10^8 colony forming units per ml. This was achieved using a densitometer. 1 μl of each bacterial suspension was then inoculated onto each plate using a multipoint inoculator. Strains were inoculated in parallel onto Columbia agar containing ferric ammonium citrate with no substrate (negative control).
(§3) After 18 hours incubation, strains were examined visually for the presence of colour. Any strains producing a black colouration on substrate containing media but not on the negative control plates were deemed to be hydrolysing the substrate.
(§4) The same evaluation method as described above in Example 2 was utilised.

[2] = system: β-D-ribofuranosidase positive strains; assay: as above; format: cell-based
Protocol: as §1, §2, §3, §4

E. coli [3] = assay: Aluminium salt-containing medium with mixed culture; format: cell-based; settings: mixed culture of E. coli and Yersinia enterocolitica
Protocol: (§5) The substrate was evaluated using the general method of example 2 but using a range of different metal salts and a culture of E. coli alone. The metal salts shown in Table 5, below, were used at a concentration of 500 mg/l.
(§6) When the aluminium salt-containing medium was used with a mixed culture of E. coli and Yersinia enterocolitica, the E. coli colonies were bright yellow and stood out very clearly.

Yersinia enterocolitica = assay: as above; format: cell-based; settings: mixed culture of E. coli and Yersinia enterocolitica
Protocol: as §5, §6

AMP nucleosidase = AMP nucleosidase (Escherichia coli, UniProt P0AE12); settings: N-ribohydrolase from E. coli, AMP nucleosidase (Schramm et al, WO97/31008); cited from earlier work
AMP nucleosidase, sequence (P0AE12 whole entry): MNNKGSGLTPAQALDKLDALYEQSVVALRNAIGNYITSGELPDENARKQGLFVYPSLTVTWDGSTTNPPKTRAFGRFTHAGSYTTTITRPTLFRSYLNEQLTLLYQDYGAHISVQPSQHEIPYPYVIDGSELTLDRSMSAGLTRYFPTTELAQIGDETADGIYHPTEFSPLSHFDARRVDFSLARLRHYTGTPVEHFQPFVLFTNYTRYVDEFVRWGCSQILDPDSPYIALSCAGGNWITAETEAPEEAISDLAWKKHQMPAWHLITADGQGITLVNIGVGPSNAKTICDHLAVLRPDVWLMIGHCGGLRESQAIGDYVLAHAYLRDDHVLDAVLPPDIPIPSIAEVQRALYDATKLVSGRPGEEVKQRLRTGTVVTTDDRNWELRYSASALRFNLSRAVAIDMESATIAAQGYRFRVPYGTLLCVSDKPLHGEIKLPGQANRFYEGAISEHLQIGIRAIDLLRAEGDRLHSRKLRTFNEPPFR

E. coli [4] = assay: Evaluation with metal salts forming chelates, colour of colonies; format: cell-based
Protocol: as §1, §2, §3, §5

E. aerogenes = assay: Hydrolysis on Columbia agar with ferric ammonium citrate; format: cell-based; settings: E. aerogenes; weaker reaction
Protocol: as §1, §2, §3

E. coli [5] = assay: as above; format: cell-based; settings: E. coli; weaker reaction
Protocol: as §1, §2, §3

K. pneumoniae = assay: as above; format: cell-based; settings: K. pneumoniae
Protocol: as §1, §2, §3

Shigella sonnei = assay: as above; format: cell-based; settings: S. sonnei
Protocol: as §1, §2, §3

Q: With “3,4-Dihydroxybenzaldehydesemicarbazone-4-β-D-ribofuranoside [Example 1.5]” as the compound, how does the Colony appearance [1] read?
A: cream colonies

Q: And the Colony appearance [2]?
A: diffuse brown colonies

Q: Which Colony appearance [2] does the source give for `O=C1/C(=C/c2ccc(OC3OC(CO)C(O)C3O)c(O)c2)Oc2ccccc21` [Example 1.7, 3′,4′-Dihydroxyaurone-4′-β-D-ribofuranoside] here?
A: pale brown colonies

Q: Which “Colour of E. coli colonies” value (E. coli [3]) does the source give for `COc1c(-c2ccc(O[C@@H]3O[C@H](CO)[C@@H](O)[C@H]3O)c(O)c2)oc2ccccc2c1=O` here?
A: bright yellow

Q: What about the “Colour of Y. enterocolitica colonies” value (Yersinia enterocolitica) of the same compound?
A: colourless

Q: Which Activity as substrate (AMP nucleosidase) does the source give for `O=[N+]([O-])c1ccc(O[C@@H]2O[C@H](COP(=O)(O)O)[C@@H](O)[C@H]2O)cc1` [p-Nitrophenyl β-D-ribofuranoside-5-phosphate] here?
A: inactive

Q: What does the source list for `COc1c(-c2ccc(O[C@@H]3O[C@H](CO)[C@@H](O)[C@H]3O)c(O)c2)oc2ccccc2c1=O` [Example 6, 3′4′-dihydroxy-3-methoxy-flavone-4′-β-D-ribofuranoside]?
A: Colour of colonies (E. coli [4]; No metal): Diffuse yellow; Colour of colonies (E. coli [4]; metal salt Al 500 mg/l): Yellow; Colour of colonies (E. coli [4]; metal salt Ba 500 mg/l): Yellow; Colour of colonies (E. coli [4]; metal salt Bi 500 mg/l): Rusty orange; Colour of colonies (E. coli [4]; metal salt Co 500 mg/l): No growth; Colour of colonies (E. coli [4]; metal salt Fe 500 mg/l): Brown; Colour of colonies (E. coli [4]; metal salt Mn 500 mg/l): Pale orange; Colour of colonies (E. coli [4]; metal salt Sn 500 mg/l): Yellow; Colour of colonies (E. coli [4]; metal salt Sr 500 mg/l): Yellow; Colour of colonies (E. coli [4]; metal salt Zn 500 mg/l): No growth

Q: With `O=Cc1ccc(OC2OC(CO)C(O)C2O)c(O)c1` [Example 1.4, 3,4-Dihydroxybenzaldehyde-4β-D-ribofuranoside sodium salt] as the compound, how does the Colony appearance (E. aerogenes) read?
A: paler colonies

Q: And the Colony appearance (E. coli [5])?
A: paler colonies

Q: And the Colony appearance (K. pneumoniae)?
A: Dark brown colonies

Q: And the Colony appearance (Shigella sonnei)?
A: Dark brown colonies

Q: What about the Colony appearance [1] of the same compound?
A: cream colonies
